Reference: patent US20190240225A1, “COMBINATION OF A BCL-2 INHIBITOR AND A MCL-1 INHIBITOR, USES AND PHARMACEUTICAL COMPOSITIONS THEREOF” (LES LABORATOIRES SERVIER, priority 2016, published 2019)

Tests used:
Format in all cases: cell-based
[1] = tested on: GDM-1; assay: CellTiterGlo viability, AML cell line; conditions: single agent, 3 days
Description: (§1) In addition, all media contained penicillin (100 IU/ml), streptomycin (100 μg/ml) and L-glutamine (2 mM).
(§2) Cell lines were cultured at 37° C. in a humidified atmosphere containing 5% CO2 and expanded in T-150 flasks. In all cases cells were thawed from frozen stocks, expanded through ≥1 passage using appropriate dilutions, counted and assessed for viability using a CASY cell counter prior to plating 150 ul/well at the densities indicated in Table 1 into 96-well plates. All cell lines were determined to be free of mycoplasma contamination in-house.
(§3) Stock solutions of compounds were prepared at a concentration of 5 mM in DMSO and stored at −20° C.
(§4) In order to analyse the activity of the compounds as single agents, cells were seeded and treated with nine 2-fold serial dilutions of each compound dispensed individually directly into the cell assay plates. Effects of the compounds on cell viability were assessed after 3 days of incubation at 37° C./5% CO2 by quantification of cellular ATP levels using CellTiterGlo at 75 μL reagent/well. All the experiments were performed in triplicates. Luminescence was quantified on a multipurpose plate reader. Single agent IC50s were calculated using standard four-parametric curve fitting. IC50 is defined as the compound concentration at which the CTG signal is reduced to 50% of that measured for the vehicle (DMSO) control.
(§5) In order to analyse the activity of the compounds in combination, cells were seeded and treated with seven or eight 3.16-fold serial dilutions of each compound dispensed, either individually or in all possible permutations in a checkerboard fashion, directly into the cell assay plates as indicated in FIG. 9. Effects of the single agents as well as their checkerboard combinations on cell viability were assessed after 3 days of incubation at 37° C./5% CO2 by quantification of cellular ATP levels using CellTiterGlo at 75 μL reagent/well. Two independent experiments, each one performed in duplicates, were performed. Luminescence was quantified on a multipurpose plate reader.
(§6) Potential synergistic interactions between compound combinations were assessed using the Excess Inhibition 2D matrix according to the Loewe additivity model and are reported as Synergy Score (Lehar et al, Nat Biotechnol. 2009 July; 27(7): 659-666). All calculations were performed using Clalice™ Bioinformatics Software.

[2] = tested on: KG1; assay: CellTiterGlo viability, AML cell line; conditions: single agent, 3 days
Description: as §1, §2, §3, §4, §5, §6

[3] = tested on: MOLM-13; assay: CellTiterGlo viability, AML cell line; conditions: single agent, 3 days
Description: as §1, §2, §3, §4, §5, §6

[4] = tested on: HL-60; assay: CellTiterGlo viability, AML cell line; conditions: single agent, 3 days
Description: as §1, §2, §3, §4, §5, §6

[5] = tested on: KG1a; assay: CellTiterGlo viability, AML cell line; conditions: single agent, 3 days
Description: as §1, §2, §3, §4, §5, §6

[6] = tested on: ML-2; assay: CellTiterGlo viability, AML cell line
Description: as §1, §2, §3, §4, §5, §6

[7] = tested on: MV4;11; assay: CellTiterGlo viability, AML cell line; conditions: single agent, 3 days
Description: as §1, §2, §3, §4, §5, §6

[8] = tested on: Nomo-1; assay: CellTiterGlo viability, AML cell line; conditions: single agent, 3 days
Description: as §1, §2, §3, §4, §5, §6

[9] = tested on: PL-21; assay: CellTiterGlo viability, AML cell line; conditions: single agent, 3 days
Description: as §1, §2, §3, §4, §5, §6

[10] = tested on: EOL-1; assay: CellTiterGlo viability, AML cell line; conditions: single agent, 3 days
Description: as §1, §2, §3, §4, §5, §6

[11] = tested on: Kasumi-1; assay: CellTiterGlo viability, AML cell line; conditions: single agent, 3 days
Description: as §1, §2, §3, §4, §5, §6

[12] = tested on: THP-1; assay: CellTiterGlo viability, AML cell line; conditions: single agent, 3 days
Description: as §1, §2, §3, §4, §5, §6

[13] = tested on: J45.01; assay: CellTiterGlo viability, T-ALL cell line; conditions: single agent, 48 h
Description: as §2, with “In addition, all media contained penicillin (100 IU/ml), streptomycin (100 μg/ml) and L-glutamine (2 mM). Cell” for “Cell”, “Table 9” for “Table 1”
(§7) Stock solutions of compounds were prepared at a concentration of 5 mM in DMSO and stored at −20° C. In order to analyse the activity of the compounds as single agents, cells were seeded and treated with nine 2-fold serial dilutions of each compound dispensed individually directly into the cell assay plates. […] All the conditions were tested in triplicates. Luminescence was quantified on a multipurpose plate reader. Single agent IC50s were calculated using standard four-parametric curve fitting. IC50 is defined as the compound concentration at which the CTG signal is reduced to 50% of that measured for the vehicle (DMSO) control.
(§8) In order to analyse the activity of the compounds in combination, cells were seeded and treated with seven or eight 3.16-fold serial dilutions of each compound dispensed, either individually or in all possible permutations in a checkerboard fashion, directly into the cell assay plates as indicated in FIG. 1. […] For B-ALL cell lines, two independent experiments, each one performed in duplicates, were performed. For T-ALL cell lines, one experiment performed in triplicate was performed. Luminescence was quantified on a multipurpose plate reader.
(§9) Potential synergistic interactions between compound combinations were assessed using the Excess Inhibition 2D matrix according to the Loewe additivity model and are reported as Synergy Score (Lehar et al, Nat Biotechnol. 2009 July; 27(7): 659-666). All calculations were performed using Chalice TM Bioinformatics Software available in Horizon website. The doubling time indicated in Table 9 is the mean of the doubling time obtained in the different passages (in T-150 flasks) performed from the thawing of the cells to their seeding in the 96-well plates.

[14] = tested on: CCRF-CEM; assay: CellTiterGlo viability, T-ALL cell line; conditions: single agent, 48 h
Description: as §2, with “In addition, all media contained penicillin (100 IU/ml), streptomycin (100 μg/ml) and L-glutamine (2 mM). Cell” for “Cell”, “Table 9” for “Table 1”
as §7, §8, §9

Cl.O=C(c1cc(-c2cc3c(cc2C(=O)N2Cc4ccccc4C[C@H]2CN2CCOCC2)OCO3)n2c1CCCC2)N(c1ccccc1)c1ccc(O)cc1 [Compound 1, HCl, N-(4-hydroxyphenyl)-3-{6-[((3S)-3-(4-morpholinylmethyl)-3,4-dihydro-2(1H)-isoquinolinyl)carbonyl]-1,3-benzodioxol-5-yl}-N-phenyl-5,6,7,8-tetrahydro-1-indolizine carboxamide hydrochloride]
IC50 ([1]; Homo sapiens, 72 h): 60 nM | IC50 ([2]; Homo sapiens, KG-1, 72 h): 4700 nM | IC50 ([3]; Homo sapiens, 72 h): 40 nM | IC50 ([4]; Homo sapiens, 72 h): 1420 nM | IC50 ([5]; Homo sapiens, KG-1a, 72 h): 1750 nM | IC50 ([6]; Homo sapiens, 72 h, single agent, 3 days): 40 nM | IC50 ([7]; Homo sapiens, 72 h): 30 nM | IC50 ([8]; Homo sapiens, 72 h): 7450 nM | IC50 ([9]; 72 h): 2780 nM | IC50 ([10]; Homo sapiens, EOL1, 72 h): 40 nM | IC50 ([11]; Homo sapiens, 72 h): 770 nM | IC50 ([12]; Homo sapiens, 72 h): 750 nM | IC50 [13]: 9000 nM | IC50 ([14]; Homo sapiens): 7500 nM

COc1ccccc1-c1nccc(COc2ccccc2C[C@@H](Oc2ncnc3sc(-c4ccc(F)cc4)c(-c4ccc(OCCN5CCN(C)CC5)c(Cl)c4C)c23)C(=O)O)n1 [Compound 3, (2R)-2-{[(5Sa)-5-{3-chloro-2-methyl-4-[2-(4-methylpiperazin-1-yl)ethoxy]phenyl}-6-(4-fluorophenyl)thieno[2,3-d]pyrimidin-4-yl]oxy}-3-(2-{[2-(2-methoxyphenyl)pyrimidin-4-yl]methoxy}phenyl)propanoic acid]
IC50 [1]: 8 nM | Mean of Max Inh ([1]; combination (c) experiment): 100% | IC50 [2]: 390 nM | IC50 [3]: 2 nM | Mean of Max Inh ([3]; combination (c) experiment): 100% | IC50 [4]: 25 nM | IC50 [5]: 2000 nM | growth inhibition ([6]; fifth lowest concentration tested, Compound 4, HCl / Compound 3 experiment): 26% | IC50 ([6]; single agent, 3 days): 5 nM | Mean of Max Inh ([6]; single agent, combination (c) experiment, 3 days): 100% | IC50 [7]: 1 nM | Mean of Max Inh ([7]; combination (c) experiment): 100.0% | IC50 [8]: 13 nM | IC50 [9]: 65 nM | IC50 [10]: 1 nM | IC50 [11]: 33 nM | IC50 [12]: 17 nM | IC50 [13]: 29 nM | IC50 [14]: 47 nM
